Experimental data taken from US9073880B2, “2-(2-phenylethenyl) 1,3-benzodiazepine derivatives useful for the treatment of cancer” (Yissum Research Development Company of the Hebrew …, priority 2010, dated 2015).

Assays:
IRS1 = IRS1 levels and serine phosphorylation in MCF7 cells (western blot, time course); format: cell-based, human; settings: 10 μM
Description: (§1) Tyrosine autophosphorylation of the β-subunit of IGF-1R as well as downstream signaling induced by IGF-1R were assayed in human breast cancer MCF7 cells and in melanoma A375 cells. Cells were seeded in 6-well plates (250,000 A375 cells/well and 300,000 MCF7 cells/well) and 24 hours later medium was replaced by serum-free medium (RPMI supplemented with 100 units/ml penicillin and 100 μg/ml streptomycin). MCF7 cells were exposed for 48 hr to compound 3 at 10 μM concentration, and then stimulated for 5 minutes with 50 ng/ml IGF-1, washed twice with PBS and lysed by boiling sample buffer (10% glycerol, 50 mM Tris-HCl, pH 6.8, 3% SDS, and 5% (3-mercaptoethanol). Equal amounts of protein per lane were separated by 8% SDS-PAGE and transferred to a nitrocellulose membrane (Sartorius AG). Phosphorylated proteins were immunoblotted with anti-phosphoIGF-1R (pIGF-1R), anti-phosphotyrosine-IRS1 (pY-IRS I) and anti-phospho(T308)Akt (pPKB) antibodies. Detection was performed with horseradish peroxidase-conjugated secondary antibody using the ECL system. Blots were then stripped of antibodies, blocked with TBST with 5% low fat milk and re-probed with antibodies detecting both the phosphorylated and the non-phosphorylated corresponding proteins e.g. IGF-1Rβ, IRS1 and PKB. […]

[1] = system: human myeloma RPMI8226 cells; test: Cell proliferation, RPMI8226 (Example 2); format: cell-based; settings: RPMI-8226, RPMI8226, multiple myeloma, 72 hours, 0.1% DMSO, WST-1
Description: (§2) Human ovary cancer A2780 cells lines were seeded at a density of 5000 cells/well, human melanoma A375 cells were plated at a density of 2,500 cells/well, human colon carcinoma HCT15 cells were plated at a density of 3,000 cells/well, human prostate carcinoma PC3 cells were plated at a density of 1,500 cells/well, human breast carcinoma MCF7 cells were plated at a density of 5,000 cells/well, human breast carcinoma MDA MB 468 cells were plated at a density of 6,000 cells/well, human myeloma U266, RPMI8226 and CAG cells were plated at a density of 10,000 cells/well. All cells were plated in 96-well plates in 90 μl growth medium containing 10% FCS, 100 units/ml penicillin and 100 μg/ml streptomycin. Compound 3 was added a day later in […] of 1% DMSO in DDW to obtain final concentrations of 0, 0.1, 0.3, 1, 3, and 10 μM. The final concentration of DMSO (0.1% DMSO) was kept constant in all samples. […] The optical density values were read at 630 nm in ELISA plate reader. Non-adhered cells were exposed to WST-1 reagent for 5 hours following 72 hours treatment with the inhibitors, and optical density values were read at 630 nm in ELISA plate reader. The data was analyzed in Microsoft Excel, using the vehicle control as 100% proliferation. […]

[2] = system: human prostate carcinoma PC3 cells; test: Cell proliferation, PC3 (Example 2); format: cell-based; settings: PC-3, 72 hours, 0.1% DMSO, methylene blue
Description: as §2

[3] = system: human breast carcinoma MDA MB 468 cells; test: Cell proliferation, MDA MB 468 (Example 2); format: cell-based; settings: MDA-468, breast cancer, 72 hours, 0.1% DMSO
Description: as §2

PKB/Akt = test: IGF1-induced PKB/Akt activation in A375 cells (Example 3); format: cell-based, human; settings: melanoma A375 cells treated 4 hr, 1 and 3 μM; FIG. 4
Description: as §1, with “system.” for “system. Blots were then stripped of antibodies, blocked with TBST with 5% low fat milk and re-probed with antibodies detecting both the phosphorylated and the non-phosphorylated corresponding proteins e.g. IGF-1Rβ, IRS1 and PKB.”
In addition, lysates of human melanoma A375 cells were prepared from cells exposed to compound 3 at 1 and 3 μM concentrations in serum-free medium. […] In this experiment the phosphorylated form of IRS1 on Serine-636/639 and the levels of IRS2 were detected as well.

human myeloma U266 cells = test: Cell proliferation, U266 (Example 2); format: cell-based; settings: U-266, U266, multiple myeloma, 72 hours, 0.1% DMSO, WST-1
Description: as §2

human myeloma CAG cells = test: Cell proliferation, CAG (Example 2); format: cell-based; settings: multiple myeloma, 72 hours, 0.1% DMSO, WST-1
Description: as §2

IGF-1R = target: T1, IGF-1R (Homo sapiens, UniProt P08069); test: IGF1-induced IGF-1R auto-phosphorylation in MCF7 cells (western blot); format: cell-based; settings: 10 μM, FIG. 3
T1 construct: endogenous in cells; host or cells: MCF7 human breast cancer cells
Description: Tyrosine autophosphorylation of the β-subunit of IGF-1R as well as downstream signaling induced by IGF-1R were assayed in human breast cancer MCF7 cells and in melanoma A375 cells. Cells were seeded in 6-well plates (250,000 A375 cells/well and 300,000 MCF7 cells/well) and 24 hours later medium was replaced by serum-free medium (RPMI supplemented with 100 units/ml penicillin and 100 μg/ml streptomycin). MCF7 cells were exposed for 48 hr to compound 3 at 10 μM concentration, and then stimulated for 5 minutes with 50 ng/ml IGF-1, washed twice with PBS and lysed by boiling sample buffer (10% glycerol, 50 mM Tris-HCl, pH 6.8, 3% SDS, and 5% (3-mercaptoethanol). Equal amounts of protein per lane were separated by 8% SDS-PAGE and transferred to a nitrocellulose membrane (Sartorius AG). Phosphorylated proteins were immunoblotted with anti-phosphoIGF-1R (pIGF-1R), anti-phosphotyrosine-IRS1 (pY-IRS I) and anti-phospho(T308)Akt (pPKB) antibodies. Detection was performed with horseradish peroxidase-conjugated secondary antibody using the ECL system. Blots were then stripped of antibodies, blocked with TBST with 5% low fat milk and re-probed with antibodies detecting both the phosphorylated and the non-phosphorylated corresponding proteins e.g. IGF-1Rβ, IRS1 and PKB.

Akt/PKB pathway = test: IGF1-induced Akt/PKB activation in A375 cells (Example 5); format: cell-based, human
Description: The effect of compound 5 on IRS1 & IRS2 levels and its effect on IGF1-induced Akt/PKB activation and apoptosis in melanoma A375 cells were tested. Cells were seeded in 6-well plates (150,000 A375 cells/well) and 24 hours later medium was replaced by serum-free medium (RPMI supplemented with 100 units/ml penicillin and 100 μg/ml streptomycin), […], and then stimulated for 5 minutes with 50 ng/ml IGF-1, washed twice with PBS and lysed by boiling sample buffer (10% glycerol, 50 mM Tris-HCl, pH 6.8, 3% SDS, and 5% β-mercaptoethanol). Equal amounts of protein per lane were separated by 8% SDS-PAGE and transferred to a nitrocellulose membrane (Sartorius AG). To detect the inhibition of the Akt/PKB activation, phosphorylated proteins were immunoblotted with anti-phospho(T308)Akt (pT308-PKB) and anti-phospho-Tuberin/TSC2 (pTuberin) antibodies. To visualize cell death induced by compound 5, the intact and the cleaved PARP were immunoblotted with anti-PARP antibody. The changes in the levels of IRS1 and IRS2 were detected with specific antibodies. Detection was performed with horseradish peroxidase-conjugated secondary antibody using the ECL system. Blots were then stripped of antibodies, blocked with TBST with 5% low fat milk and re-probed with antibodies detecting both the phosphorylated and the non-phosphorylated Akt/PKB. […]

T1 sequence (P08069 31-1367): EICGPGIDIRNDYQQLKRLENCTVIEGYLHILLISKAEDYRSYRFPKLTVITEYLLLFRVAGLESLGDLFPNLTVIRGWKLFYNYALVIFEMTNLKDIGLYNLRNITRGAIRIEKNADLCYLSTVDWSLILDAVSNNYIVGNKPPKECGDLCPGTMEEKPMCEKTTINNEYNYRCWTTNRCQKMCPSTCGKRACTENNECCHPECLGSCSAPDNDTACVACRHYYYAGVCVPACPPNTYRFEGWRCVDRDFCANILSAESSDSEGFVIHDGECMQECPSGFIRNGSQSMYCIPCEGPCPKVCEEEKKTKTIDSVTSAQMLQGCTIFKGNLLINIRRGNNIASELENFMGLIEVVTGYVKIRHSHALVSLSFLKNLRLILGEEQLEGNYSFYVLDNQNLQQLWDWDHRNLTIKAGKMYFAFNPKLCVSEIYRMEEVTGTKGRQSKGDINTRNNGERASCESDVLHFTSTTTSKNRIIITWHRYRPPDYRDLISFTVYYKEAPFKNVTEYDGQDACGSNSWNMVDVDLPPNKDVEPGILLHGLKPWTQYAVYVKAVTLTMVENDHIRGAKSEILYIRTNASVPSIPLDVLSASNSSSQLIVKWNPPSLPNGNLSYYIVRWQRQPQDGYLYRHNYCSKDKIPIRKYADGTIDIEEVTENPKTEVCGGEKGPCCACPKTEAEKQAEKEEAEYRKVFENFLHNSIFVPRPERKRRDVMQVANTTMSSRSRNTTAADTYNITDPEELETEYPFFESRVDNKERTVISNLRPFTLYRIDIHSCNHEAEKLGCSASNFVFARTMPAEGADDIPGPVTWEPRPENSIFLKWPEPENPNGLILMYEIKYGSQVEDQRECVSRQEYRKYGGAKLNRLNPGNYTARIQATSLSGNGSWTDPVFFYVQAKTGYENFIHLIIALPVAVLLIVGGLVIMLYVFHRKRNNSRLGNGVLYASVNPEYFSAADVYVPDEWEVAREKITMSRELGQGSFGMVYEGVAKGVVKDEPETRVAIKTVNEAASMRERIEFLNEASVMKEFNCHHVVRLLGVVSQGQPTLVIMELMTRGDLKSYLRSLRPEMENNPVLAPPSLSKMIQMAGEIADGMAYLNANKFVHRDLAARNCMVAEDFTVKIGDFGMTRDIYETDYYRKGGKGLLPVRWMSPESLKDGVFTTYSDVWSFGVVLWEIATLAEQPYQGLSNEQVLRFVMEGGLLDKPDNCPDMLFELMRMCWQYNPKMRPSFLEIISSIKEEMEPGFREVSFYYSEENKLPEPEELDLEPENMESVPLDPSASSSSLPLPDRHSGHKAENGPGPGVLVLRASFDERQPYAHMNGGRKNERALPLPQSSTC

Compound | levels of IRS1 (IRS1; 48 hr, FIG. 3) | time course of effect on IRS1 phosphorylation and levels (IRS1; various time periods, FIG. 5) | IC50 [1] [µM] | IC50 [2] [µM] | IC50 [3] [µM] | IGF1-induced PKB/Akt activation (PKB/Akt) | IC50 (human myeloma U266 cells) [µM] | IC50 (human myeloma CAG cells) [µM] | IGF1-induced auto-phosphorylation of IGF-1R (IGF-1R; 48 hr, 50 ng/ml IGF-1 5 minutes) | duration of the inhibitory effect (IGF-1R) | IGF1-induced activation of the Akt/PKB pathway (Akt/PKB pathway; 3 μM, 48 hr, 50 ng/ml IGF-1 5 minutes, FIG. 6B) | IGF1-induced activation of PKB/Akt after washout (Akt/PKB pathway; 5 μM for 4 hr, washed, 24 hr after washout, FIG. 6C)
O=c1c(O)cc2cnc(/C=C/c3cc(O)c(O)c(Br)c3)sc-2c1O [Compound 3] | significant decrease | elimination of IRS1 induced by compound 3 is subsequent to IRS1 serine phosphorylation | 2 | 2 | 3.8 | inhibition of IGF1-induced PKB/Akt activation | 0.7 | 1.2 | significantly inhibited | more than 48 hr | – | –
O=c1c(O)cc2cnc(/C=C/c3ccc(O)c(O)c3Br)sc-2c1O [Compound 5] | – | – | – | – | – | – | – | – | – | – | blocked the IGF1-induced activation of the Akt/PKB pathway | blocked
